Assay results as given in ChEMBL document CHEMBL1201862, “PubChem BioAssay data set” (2004).
Active and inactive are the calls of the source.

How the values were obtained:
[1] = Late stage assay provider results from the probe development effort to identify selective inhibitors of heat shock protein 90 (HSP90): Absorbance-based cell proliferation assay in SKBR3 cells.; assay type: functional; details: SK-BR-3
[2] = Late stage assay provider results from the probe development effort to identify selective inhibitors of heat shock protein 90 (HSP90): Absorbance-based cell proliferation assay in MCF7 cells.; assay type: functional
[3] = target: T1, Nuclear receptor subfamily 0 group B member 1 (Homo sapiens, UniProt P51843); assay type: functional, cell-based;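 further: HEK293T cells transfected with SF-1 and DAX-1 plus StAR promoter luciferase reporter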
T1 sequence (P51843 whole entry): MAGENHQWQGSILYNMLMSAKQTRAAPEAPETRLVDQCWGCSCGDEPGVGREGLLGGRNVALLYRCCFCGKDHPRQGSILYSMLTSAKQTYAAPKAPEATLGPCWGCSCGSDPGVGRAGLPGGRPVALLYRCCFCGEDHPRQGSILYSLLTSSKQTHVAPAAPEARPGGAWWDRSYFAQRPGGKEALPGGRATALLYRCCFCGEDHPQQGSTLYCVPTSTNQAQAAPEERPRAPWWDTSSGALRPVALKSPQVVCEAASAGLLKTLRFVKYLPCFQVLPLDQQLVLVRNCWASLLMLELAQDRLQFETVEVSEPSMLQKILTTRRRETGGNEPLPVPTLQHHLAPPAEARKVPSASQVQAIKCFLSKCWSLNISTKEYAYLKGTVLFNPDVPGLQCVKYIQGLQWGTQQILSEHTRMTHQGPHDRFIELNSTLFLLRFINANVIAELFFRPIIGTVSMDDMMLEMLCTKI

[4] = cells; assay type: functional, cell-based
[5] = cytotoxicity toward HCT116 cells – cell-based, CellTiter-Glo luminescence, IC50, dose response (AID 1117332); assay type: functional; details: HCT-116
[6] = CellTiter-Glo luminescence survival assay, SW480 colon tumor line, concentration-response curve, half-maximal inhibitory concentration (AID 1117338); assay type: functional
[7] = cytotoxicity toward HT-29 cells – cell-based, CellTiter-Glo luminescence, IC50, dose response (AID 1117330); assay type: functional
[8] = Reduced DLD-1 viability, concentration-response, CellTiter-Glo luminescence (AID 1117352); assay type: functional
[9] = cytotoxicity toward Colo320 cells – cell-based, CellTiter-Glo luminescence, IC50, dose response (AID 1117334); assay type: functional; details: COLO 320
[10] = HCT116 cell viability decrease, GSK3B pretreatment – CellTiter-Glo, IC50, dose response (AID 1117339); assay type: functional; details: HCT-116
[11] = RKO cell viability reduction, dose response, CellTiter-Glo luminescence (AID 1117322); assay type: functional
[12] = SNU-C1 cell viability reduction, dose response, CellTiter-Glo luminescence (AID 1117323); assay type: functional, cell-based
[13] = target: Galanin receptor type 3 (Homo sapiens, UniProt O60755); experiment: Fluorescence-based cell-based primary high throughput dose response assay to identify antagonists of the Galanin Receptor 3 (GalR3).; assay type: functional
Galanin receptor type 3, sequence (O60755 whole entry): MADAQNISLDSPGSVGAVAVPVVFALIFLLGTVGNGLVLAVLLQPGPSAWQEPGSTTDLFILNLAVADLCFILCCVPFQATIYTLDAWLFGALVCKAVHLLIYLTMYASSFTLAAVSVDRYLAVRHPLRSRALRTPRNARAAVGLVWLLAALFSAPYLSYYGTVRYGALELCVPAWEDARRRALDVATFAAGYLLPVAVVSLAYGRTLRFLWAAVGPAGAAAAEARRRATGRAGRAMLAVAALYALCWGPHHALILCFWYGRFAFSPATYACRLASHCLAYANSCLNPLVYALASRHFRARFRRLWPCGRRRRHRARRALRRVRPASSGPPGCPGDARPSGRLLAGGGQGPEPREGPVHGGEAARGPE

[14] = cells; assay type: functional, cell-based; details: HEK-CNG
[15] = cells; assay type: functional
[16] = THP-1 cell cytotoxicity, dose response, cytotoxicity control for non-replicating M. tuberculosis project (AID 489025); assay type: functional
[17] = OVCAR-3 cell viability loss – plate reader, dry powder samples, PAX8 inhibitor project, dose response (AID 743044); assay type: functional, cell-based
[18] = target: Paired box protein Pax-8 (Homo sapiens, UniProt Q06710); experiment: PAX8 transcriptional activity inhibition in RMG-I – RMG-I cells, luciferase, cherry-pick, dose response (AID 687027); assay type: functional, cell-based;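 further: luciferase reporter driven by Pax8 target thyroperoxidase promoter measured by SteadyGlo luminescence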
Paired box protein Pax-8, sequence (Q06710 whole entry): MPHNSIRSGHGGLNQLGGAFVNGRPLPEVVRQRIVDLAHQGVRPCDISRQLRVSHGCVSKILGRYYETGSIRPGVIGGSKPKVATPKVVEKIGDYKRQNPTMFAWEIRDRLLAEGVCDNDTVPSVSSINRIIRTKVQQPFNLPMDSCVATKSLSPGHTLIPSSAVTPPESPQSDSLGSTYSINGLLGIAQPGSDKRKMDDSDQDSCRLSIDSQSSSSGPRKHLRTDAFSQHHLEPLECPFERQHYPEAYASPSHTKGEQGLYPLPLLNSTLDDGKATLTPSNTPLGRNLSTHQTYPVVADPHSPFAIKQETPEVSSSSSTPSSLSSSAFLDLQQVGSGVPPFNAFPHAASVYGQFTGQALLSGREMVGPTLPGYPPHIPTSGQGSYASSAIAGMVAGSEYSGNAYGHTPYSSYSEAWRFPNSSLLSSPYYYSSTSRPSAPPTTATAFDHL

[19] = toxicity toward immortalized ovarian surface epithelium – cell-based, plate reader, dry powder samples, cytotoxicity control for PAX8 inhibitor project, dose response (AID 743045); assay type: functional
[20] = IGROV1 cell killing – plate reader, dry powder samples, PAX8 inhibitor project, dose response (AID 743043); assay type: functional, cell-based; details: IGROV-1
[21] = A2780 cell killing – plate reader, dry powder samples, cytotoxicity control, dose response (AID 743046); assay type: functional, cell-based
[22] = OVCAR8 cell viability loss – plate reader, dry powder samples, PAX8 project, dose response (AID 743197); assay type: functional, cell-based; details: OVCAR-8
[23] = rise of 2N DNA cells, HeLa – IC50, dose response (AID 1117349); assay type: functional, cell-based
[24] = rise of 4N DNA cells, HeLa – IC50, dose response (AID 1117351); assay type: functional, cell-based
[25] = HIV-1 Vif–A3G interaction blockers – biochemical, TR-FRET, GST-Vif 1-94, biotin-A3G peptide, dose response retest, primary screen (AID 1117319); assay type: functional;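 further: TR-FRET signal of purified GST-Vif binding a biotinylated A3G peptide; inhibitors lower the FRET signal by blocking Vif and A3G binding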
[26] = viability of PTEN-deleted HCT116 cells – cell-based, HCT116 PTEN knockout, dose response (AID 1047); assay type: functional;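 further: HCT116 colon tumor cells with PTEN knocked out; cells exposed to compound for 60 hours before readout; potency for loss of cell viability measured by luminescence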
[27] = target: T2, Protein RecA (Mycobacterium tuberculosis, UniProt P9WHJ3); experiment: Fluorescence Cell-Free Homogeneous Dose Retest to Identify Inhibitors of RecA-Intein Splicing Activity. [Related pubchem assays (depositor defined):AID2097, AID2223, AID489010, AID492950]; assay type: functional
T2 sequence (P9WHJ3 whole entry): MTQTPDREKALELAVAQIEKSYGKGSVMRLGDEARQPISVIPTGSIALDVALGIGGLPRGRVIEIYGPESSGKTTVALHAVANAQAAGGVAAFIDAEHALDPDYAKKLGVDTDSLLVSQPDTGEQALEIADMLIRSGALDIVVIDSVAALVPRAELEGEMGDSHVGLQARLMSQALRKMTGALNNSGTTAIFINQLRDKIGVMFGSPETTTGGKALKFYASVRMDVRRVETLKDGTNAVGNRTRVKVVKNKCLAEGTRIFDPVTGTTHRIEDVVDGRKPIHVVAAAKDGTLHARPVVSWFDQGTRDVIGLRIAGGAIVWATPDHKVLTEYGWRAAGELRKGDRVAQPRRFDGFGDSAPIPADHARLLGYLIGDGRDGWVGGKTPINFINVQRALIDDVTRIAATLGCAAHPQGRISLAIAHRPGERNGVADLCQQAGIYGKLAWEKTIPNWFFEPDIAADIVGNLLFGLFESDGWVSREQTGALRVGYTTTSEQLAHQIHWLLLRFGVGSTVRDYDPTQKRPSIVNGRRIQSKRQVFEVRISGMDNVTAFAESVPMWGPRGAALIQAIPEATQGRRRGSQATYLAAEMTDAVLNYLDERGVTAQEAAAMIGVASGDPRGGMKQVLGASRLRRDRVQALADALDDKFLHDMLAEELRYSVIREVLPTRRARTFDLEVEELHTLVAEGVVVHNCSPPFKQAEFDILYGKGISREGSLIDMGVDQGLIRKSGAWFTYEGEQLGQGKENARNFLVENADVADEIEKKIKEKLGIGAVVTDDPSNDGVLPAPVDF

[28] = Luminescent dose response cell-based high throughput screening assay for inhibitors of the Janus kinase 2 mutant JAK2V617F. [Related pubchem assays: 1446 (Primary screen.), 1521 (Confirmation assay.), 1486 (Counter screen.)]; assay type: functional
[29] = system: BJ; experiment: growth inhibition of engineered Ras-driven BJ cells – cell-based, alamar blue fluorescence, cherrypicked samples, dose response (AID 2631); assay type: functional; details: Homo sapiens;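 further: confirmatory dose-response assay in RAS-dependent BJ fibroblasts engineered with TERT, LT and ST, with cytotoxicity read by fluorescence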
[30] = viability of HCT116 lacking mutant beta-catenin – cell-based, human colon tumor, dose response (AID 1045); assay type: functional;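 further: HCT116 colon tumor cells with beta catenin knocked out; cells exposed to compound for 60 hours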
[31] = target: T3, Replicative DNA helicase DnaB (Mycobacterium tuberculosis, UniProt P9WMR3); experiment: DnaB intein splicing inhibitors, dose response, biochemical, cell-free fluorescence (AID 449749); assay type: functional
T3 sequence (P9WMR3 whole entry): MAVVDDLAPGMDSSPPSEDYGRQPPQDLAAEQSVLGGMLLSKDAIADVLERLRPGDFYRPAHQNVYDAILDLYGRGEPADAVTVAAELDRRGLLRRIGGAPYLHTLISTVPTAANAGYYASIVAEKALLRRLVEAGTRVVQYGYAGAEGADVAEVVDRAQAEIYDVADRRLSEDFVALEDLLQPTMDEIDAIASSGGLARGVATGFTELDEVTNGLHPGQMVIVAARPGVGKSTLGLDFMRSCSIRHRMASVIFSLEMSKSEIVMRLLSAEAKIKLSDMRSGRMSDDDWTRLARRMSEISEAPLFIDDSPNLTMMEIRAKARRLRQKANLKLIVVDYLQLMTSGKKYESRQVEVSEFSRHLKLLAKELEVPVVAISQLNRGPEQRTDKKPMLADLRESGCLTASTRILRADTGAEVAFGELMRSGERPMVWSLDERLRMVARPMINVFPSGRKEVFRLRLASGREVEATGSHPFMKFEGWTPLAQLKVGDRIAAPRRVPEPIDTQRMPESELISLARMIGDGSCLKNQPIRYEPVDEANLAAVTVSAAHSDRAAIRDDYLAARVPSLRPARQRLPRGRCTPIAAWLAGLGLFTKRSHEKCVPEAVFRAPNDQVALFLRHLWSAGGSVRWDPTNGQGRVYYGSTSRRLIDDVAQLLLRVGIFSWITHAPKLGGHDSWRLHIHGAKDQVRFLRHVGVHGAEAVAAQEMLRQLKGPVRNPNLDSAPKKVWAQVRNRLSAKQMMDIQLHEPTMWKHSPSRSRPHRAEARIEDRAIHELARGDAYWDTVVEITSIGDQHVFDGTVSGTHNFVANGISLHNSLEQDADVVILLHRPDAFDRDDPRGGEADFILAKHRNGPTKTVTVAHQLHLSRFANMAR

[32] = Intein inhibitors as potential Tuberculosis drugs, a cytotoxicity screen. [Related pubchem assays (depositor defined):AID2221, AID2223, AID434968, AID435010, AID449749, AID449750, AID489010]; assay type: functional

CCOc1cn(C)c(C(=O)Nc2ccccc2)cc1=O
inactive: IC50 [1] > 100 µM | IC50 [2] > 100 µM

COc1ccc(C=C2CCc3ccccc3C2=O)cc1
inactive: IC50 [3] > 67.6 µM | IC50 [4] > 67.6 µM

C[C@H](O)CN(C)C
inactive: IC50 [5] > 20 µM | IC50 [6] > 20 µM | IC50 [7] > 20 µM | IC50 [8] > 20 µM | IC50 [9] > 20 µM | IC50 [10] > 20 µM | IC50 [11] > 20 µM | IC50 [12] > 20 µM

CC(C)(C)NC(=O)COC(=O)c1snc(C(=O)NC2CCCCC2)c1N
inactive: EC50 [14] > 29.9 µM
active: IC50 [13] 1.95 µM | IC50 [15] 4.33 µM | CC50 [16] > 40 µM

Cc1ccc(S(=O)(=O)N(C)C[C@@H]2Oc3ccc(NC(=O)Nc4ccc(C(F)(F)F)cc4)cc3CC(=O)N([C@@H](C)CO)C[C@@H]2C)cc1
active: AC50 [17] 0.584 µM | AC50 [18] 0.799 µM | AC50 [19] 0.483 µM | AC50 [20] 1.16 µM | AC50 [21] 3.88 µM | AC50 [22] 5.91 µM

CCCCCCCCCCCC[N+](C)(C)Cc1ccccc1
inactive: IC50 [6] 7.95 µM | IC50 [23] > 10 µM | IC50 [24] > 10 µM | IC50 [9] 8.99 µM | IC50 [10] > 20 µM
active: IC50 [5] 1.96 µM | IC50 [7] 0.465 µM | IC50 [8] 0.738 µM | IC50 [11] 3.07 µM | IC50 [12] 0.02 µM

CCOc1ccc(N/C([S-])=C(/C(=O)c2ccc(C)c([N+](=O)[O-])c2)[n+]2ccccc2)cc1
active: IC50 [25] > 100 µM

COc1cccc(N(C(=O)CCl)C(C(=O)NCCc2ccccc2)c2cccs2)c1 (stereo not given)
active: EC50 [26] 1.59 µM | EC50 [27] 0.329 µM | IC50 [28] 0.581 µM | EC50 [29] 3.95 µM | EC50 [30] 1.48 µM | AC50 [31] 2.11 µM | CC50 [32] 0.2 µM
